# Test results as given in patent US20230255954A1, “INTERLEUKIN 33 (IL-33) INHIBITION FOR TREATMENT OF CANCER, FIBROSIS AND INFLAMMATION” (The General Hospital Corporation, priority 2020, published 2023).
# Tests used:
# [1] = test system: p-IRF3 bindings to Il33 promoter region; assay: ChIP assay, p-IRF3 binding to Il33 promoter region in Pam212 cells; format: cell-based, mouse; conditions: compared to only Poly (I:C) treated group
# Protocol: Pam212 cells that had been transfected with plasmids were fixed in 1% formaldehyde (Millipore Sigma, catalog no. F8775) for 10 min and were washed by cold PBS. Cells were lysed with buffer contained with 2.5% of glycerol, 50 mM HEPES (pH 7.5), 150 mM NaCl, 0.5 mM EDTA, 0.5% NP-40 and 0.25% Triton X-100. After centrifugation at 2,000 rpm, cells lysate were resuspended in buffer A contained with 1 mM Tris/HCl (pH 7.9), 20 mM NaCl and 0.5 mM EDTA and incubated at room temperature for 10 min. Following the second centrifugation at 2,000 rpm, cells were sonicated in sonication buffer containing 10 mM HEPES, 1 mM EDTA and 0.5% SDS for 30 min to achieve chromatin fragmentation. Following centrifugation at 13,000 rpm, proteins were immunoprecipitated with HA antibody at 4° C. overnight. Next day, the samples were incubated with 30 μL 50% slurry of ChIP-Grade Protein G agarose beads (Cell Signaling Technology, catalog no. 9007S) for 2 hours. Samples were precipitated, washed three times with wash buffer containing 20 mM Tris/HCl (pH 7.9), 10 mM NaCl, 2 mM EDTA, 0.1% SDS and Triton X-100. After the last wash step, samples were eluted with 100 μL of TE buffer contained with 100 mM Tris/HCl (pH 8), 1 mM EDTA and 1% SDS for three times. […] Precipitated DNA was purified by CMP DNA Clean & Concentrator (ZYMO research, Irvine, Calif., catalog no. D5205) and subjected to quantitative PCR. […]
# [2] = test system: Caerulein-injected mouse pancreas; assay: Caerulein chronic pancreatitis model with pitavastatin; format: in vivo
# Protocol: Mice were weighed and injected with 50 μg/kg caerulein (BACHEM, Torrance, Calif., catalog no. 4030451) in 100 μL of PBS intraperitoneally every hour for 6 hours, three days per week for 3 weeks and mice were harvested.
# 1 mM of pitavastatin was dissolved in DMSO for stock, and then 100 uM was dissolved in PBS with caerulein for mice injection. Mice were injected with caerulein.
# Tissue samples were collected and fixed in 4% paraformaldehyde (Millipore Sigma, catalog no. P6148) overnight at 4° C. Next, tissues were dehydrated in ethanol, processed and embedded in paraffin. 5 μm sections paraffin-embedded tissues were placed on slides, deparaffinized and stained with H&E or toluidine blue (for mast cell detection). For immunohistochemistry, antigen retrieval was performed in 500 μL of antigen unmasking solution (VECTOR Laboratories, Burlingame, Calif., catalog no. H3300) diluted in 50 mL water using Cuisinart pressure cooker for 20 min at high pressure. Slides were washed three times for three minutes each in 1×TBS with 0.025% Triton X-100. Sections were blocked with 1% bovine serum albumin (Thermo Fisher Scientific, catalog no. BP1600) and 5% goat serum (Millipore Sigma, catalog no. G9023) for 1 hour. Slides were stained overnight at 4° C. with a primary antibody diluted in TBS containing 1% BSA (Appendix Table S2). […]
compound,measurement,setting,value
O=C(O)C[C@H](O)C[C@H](O)/C=C/c1c(C2CC2)nc2ccccc2c1-c1ccc(F)cc1 [pitavastatin],Poly (I:C) induced p-IRF3 bindings to Il33 promoter region,[1],significantly reduced
same,severity of pancreatitis,"[2]; 100 uM pitavastatin in PBS injected with caerulein, vs severe pancreatitis in caerulein plus carrier",mild pancreatitis
same,inflammatory cell infiltrates in pancreas (H&E),[2]; Caerulein-injected mouse pancreas with or without pitavastatin,reduction
